Reference: US20260374739A1, “SMALL MOLECULAR WEIGHT CHEMICAL COMPOUND TO ANTAGONIZE EPH-EPHRIN TETRAMERIZATION AND INHIBIT BIDIRECTIONAL SIGNALING” (THE BOARD OF REGENTS OF THE UNIVERSITY OF TEXAS SYSTEM, priority 2022, published 2026)
Values joined by “and” are separate entries in the source; they are usually repeats but may differ in a detail not shown here. Equal entries are not always repeated.

What was measured:
EphrinB2-EphB1 = target: T1, EphrinB2-EphB1 (Homo sapiens, UniProt P54762); test: Octet 80 sec association/500 sec dissociation, immobilized human EphrinB2-Fc binding to soluble human EphB1-His; conditions: immobilized human EphrinB2, 25 nM soluble human EphB1; for EphB1 Inhibition Percent, Inhibition of Association ONLY: at 3.2 μM and 80 seconds; for EphB1 Inhibition Percent, Inhibition of Association-Dissociation: at 3.2 μM and 580 seconds
T1 construct: soluble human EphB1-His, EphB2-His, and EphB4-His ectodomains; commercially available human EphrinB1-Fc (EB1), EphrinB2-Fc (EB2), and EphrinB3-Fc (EB3) ectodomain proteins; purchased
T1 sequence (P54762 18-540 limits assumed): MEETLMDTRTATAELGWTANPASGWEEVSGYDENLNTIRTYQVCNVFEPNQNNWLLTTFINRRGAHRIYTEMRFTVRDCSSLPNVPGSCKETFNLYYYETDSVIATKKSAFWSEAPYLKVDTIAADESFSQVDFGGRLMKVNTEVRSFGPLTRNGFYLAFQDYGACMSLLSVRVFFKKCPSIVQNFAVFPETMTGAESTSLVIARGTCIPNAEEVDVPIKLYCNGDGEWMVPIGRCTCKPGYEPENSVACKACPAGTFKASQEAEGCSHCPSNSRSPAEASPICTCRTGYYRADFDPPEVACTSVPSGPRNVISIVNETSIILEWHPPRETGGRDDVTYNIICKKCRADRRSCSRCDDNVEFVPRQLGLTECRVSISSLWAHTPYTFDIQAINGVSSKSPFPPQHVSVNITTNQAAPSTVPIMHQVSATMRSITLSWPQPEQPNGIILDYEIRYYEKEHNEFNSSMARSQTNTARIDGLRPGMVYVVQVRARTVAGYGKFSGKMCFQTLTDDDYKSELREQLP
Protocol: In another experiment, whether certain A20 analogs might have specificity for different Eph receptors was tested. An Octet RED384 system was used to obtain biophysical ON-OFF binding data (association-dissociation) for the three different human EphrinB2-EphB1, EphrinB2-EphB2, and EphrinB2-EphB4 protein-protein interactions and to assess the effect of A20 chemicals on the binding kinetics.
FIGS. 72A-72C show three example Octet sensorgram response traces for the immobilized human EphrinB2 ectodomain protein binding to soluble forms of the human EphB1, EphB2, and EphB4 ectodomain proteins, in the absence or presence of an A20 chemical (buffer conditions are always PBSTD:PBS with 0.05% Tween-20, 1% DMSO, and +/− indicated chemical). After loading EphrinB2-Fc protein to Octet AHC biosensors, washing, and obtaining stable baseline measurements in the appropriate PBSTD (either with or without indicated chemical), the sensors are placed in its buffer that also contains the indicated soluble EphB protein for the association step (0-80″), and then returned to its buffer for the dissociation step (81″-580″). In each figure (FIGS. 72A-72C), a sensorgram run using 10 μM of the 2×HCl salt form of A20-I is compared to the no compound control run to exemplify the maximum level of reduced response signal typically obtained with a potent A20 chemical.
Because the response levels during the dissociation step plateau for the EphrinB2-EphB2 and EphrinB2-EphB1 interactions by the first 80″, AUCs were also calculated for run data encompassing the first 160″ of each experiment to account for both the 80″ association data (red asterisks) and the first 80″ of dissociation data (marked by green line and asterisks).
The selectivity of another A20 analog (a 3×HCL salt form of compound BQPB4) in comparison to previously tested compound, A20-1, was tested as described in Example 27 above.
Further to the experiments listed above, a series of dose-response experiments were conducted to determine the IC50 of a selected A20 chemical (A20-1) on the kinetics of human EphrinB2 ligand ectodomain protein binding to its cognate human EphB1, EphB2, and EphB4 receptor ectodomain proteins. FIG. 74A-74C are representative sensorgrams showing the effect of 0, 0.1, 0.2, 0.4, 0.8, 1.6, and 3.2 μM, concentrations of the 2×HCl salt of A20-I along with a 10 μM max standard (also A20-1) on three different Ephrin-EphB interactions (e.g., EphB1 in FIG. 74A, EphB2 in FIG. 74B and EphB4 in FIG. 74C). […] Additional IC50 values were determined at specific timepoints, at 75″ into the association step and at 55″ into the dissociation step (135″).
All absolute and relative IC50 values are provided in the Table 6 below, where absolute are based off the full binding sensorgram traces, and relative are based off of the max control traces.
In another experiment, the % inhibition for various A20 analog chemicals against the three different EphrinB2-EphB protein interactions was determined. Specifically, the percent inhibition for immobilized human EphrinB2-Fc binding to 25 nM soluble human EphB1-His (FIG. 76A, enlarged in FIG. 76D), EphB2-His (FIG. 76B, enlarged in FIG. 76E), and EphB4-His (FIG. 76C, enlarged in FIG. 76F) with 3511-I, 8009-9255, QTM-Br, A19, A19-NO2, and IM (all at 3.2 μM) was determined.

EphrinB2-EphB2 [1] = target: T2, EphrinB2-EphB2 (Homo sapiens, UniProt P29323); test: Octet 80 sec association/500 sec dissociation, immobilized human EphrinB2-Fc binding to soluble human EphB2-His; conditions: immobilized human EphrinB2, 25 nM soluble human EphB2; for EphB2 Inhibition Percent, Inhibition of Association ONLY: at 3.2 μM and 80 seconds; for EphB2 Inhibition Percent, Inhibition of Association-Dissociation: at 3.2 μM and 580 seconds
T2 construct: soluble human EphB1-His, EphB2-His, and EphB4-His ectodomains; commercially available human EphrinB1-Fc (EB1), EphrinB2-Fc (EB2), and EphrinB3-Fc (EB3) ectodomain proteins; purchased
T2 sequence (P29323 19-543 limits assumed): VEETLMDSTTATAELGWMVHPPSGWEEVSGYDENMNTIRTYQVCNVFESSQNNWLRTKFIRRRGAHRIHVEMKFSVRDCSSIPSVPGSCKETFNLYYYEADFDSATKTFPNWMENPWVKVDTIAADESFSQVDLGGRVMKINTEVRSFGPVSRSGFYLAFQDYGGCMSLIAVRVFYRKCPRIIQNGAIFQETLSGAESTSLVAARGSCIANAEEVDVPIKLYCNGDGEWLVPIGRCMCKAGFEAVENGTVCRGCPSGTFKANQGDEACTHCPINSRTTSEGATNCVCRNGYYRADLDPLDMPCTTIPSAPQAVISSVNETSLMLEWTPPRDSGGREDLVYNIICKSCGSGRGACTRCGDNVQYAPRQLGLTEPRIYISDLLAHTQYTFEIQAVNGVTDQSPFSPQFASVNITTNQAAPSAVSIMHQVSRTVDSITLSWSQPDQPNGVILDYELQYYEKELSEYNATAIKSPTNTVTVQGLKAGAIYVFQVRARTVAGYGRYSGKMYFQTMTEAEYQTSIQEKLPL
Method in brief: (§1)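 EphrinB2-Fc captured on AHC biosensors, then soluble His-tagged EphB ectodomain (25 nM for % inhibition runs) associated 80 s and dissociated 500 s in PBS, 0.05% Tween-20, 1% DMSO ± compound. Compounds tested at 0.1–3.2 μM with a 10 μM max standard; IC50 from AUC of full traces or at 75 s and 135 s.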

EphrinB2-EphB2 [2] = target: T2, EphrinB2-EphB2; test: Octet tetramerization inhibition, immobilized human EphrinB2 binding to 50 nM soluble human EphB2; conditions: EphrinB2-EphB2
EphrinB2-EphB4 = target: T3, EphrinB2-EphB4 (Homo sapiens, UniProt P54760); test: Octet 80 sec association/500 sec dissociation, immobilized human EphrinB2-Fc binding to soluble human EphB4-His; conditions: immobilized human EphrinB2, 25 nM soluble human EphB4; for EphB4 Inhibition Percent, Inhibition of Association ONLY: at 3.2 μM and 80 seconds; for EphB4 Inhibition Percent, Inhibition of Association-Dissociation: at 3.2 μM and 580 seconds
T3 construct: soluble human EphB1-His, EphB2-His, and EphB4-His ectodomains; commercially available human EphrinB1-Fc (EB1), EphrinB2-Fc (EB2), and EphrinB3-Fc (EB3) ectodomain proteins; purchased
T3 sequence (P54760 16-539 limits assumed): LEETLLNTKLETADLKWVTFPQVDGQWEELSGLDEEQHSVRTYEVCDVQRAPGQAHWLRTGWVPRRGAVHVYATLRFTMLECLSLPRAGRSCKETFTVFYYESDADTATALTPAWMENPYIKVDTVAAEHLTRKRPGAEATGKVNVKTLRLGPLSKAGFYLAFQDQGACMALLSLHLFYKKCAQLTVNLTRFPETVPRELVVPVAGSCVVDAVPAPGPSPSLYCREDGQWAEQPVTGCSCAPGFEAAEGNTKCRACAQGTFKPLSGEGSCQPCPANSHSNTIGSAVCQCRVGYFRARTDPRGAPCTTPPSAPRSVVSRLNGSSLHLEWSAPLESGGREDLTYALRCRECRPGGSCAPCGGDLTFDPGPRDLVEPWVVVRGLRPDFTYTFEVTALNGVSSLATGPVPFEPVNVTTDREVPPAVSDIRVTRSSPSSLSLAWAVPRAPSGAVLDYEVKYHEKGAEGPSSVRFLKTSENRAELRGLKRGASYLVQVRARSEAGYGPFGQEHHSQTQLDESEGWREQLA
Method in brief: as §1

[3] = Absolute Association IC50 (300 sec), Table A
[4] = Absolute Dissociation IC50 (450 sec), Table A
[5] = Relative AUC/IC50, Table A, compound 7: association only
[6] = Relative Association IC50 (300 sec), Table A
[7] = Relative Dissociation IC50 (450 sec), Table A

Structure (SMILES): Oc1ccc(CN2CCN(c3ccccc3)CC2)c2cccnc12 [Compound 23, 8-hydroxy-5-((4-phenylpiperazin-1-ium-1-yl)methyl)quinolin-1-ium chloride]
- EphB1 Inhibition Percent, Inhibition of Association ONLY (EphrinB2-EphB1): 30.8% and 16.2%
- EphB1 Inhibition Percent, Inhibition of Association-Dissociation (EphrinB2-EphB1): 41.2% and 24.8%
- EphB2 Inhibition Percent, Inhibition of Association ONLY (EphrinB2-EphB2 [1]): 66.0% and 38.5%
- EphB2 Inhibition Percent, Inhibition of Association-Dissociation (EphrinB2-EphB2 [1]): 79.1% and 49%
- IC50 (EphrinB2-EphB2 [2]; Absolute AUC/IC50, Table A): > 1600 nM
- IC50 (EphrinB2-EphB2 [2]; [3]): > 1600 nM
- IC50 (EphrinB2-EphB2 [2]; [4]): > 1600 nM
- IC50 (EphrinB2-EphB2 [2]; [5]): > 1600 nM
- IC50 (EphrinB2-EphB2 [2]; [6]): > 1600 nM
- IC50 (EphrinB2-EphB2 [2]; [7]): > 1600 nM
- EphB4 Inhibition Percent, Inhibition of Association ONLY (EphrinB2-EphB4): 23.1% and 12.1%
- EphB4 Inhibition Percent, Inhibition of Association-Dissociation (EphrinB2-EphB4): 26.7% and 17.9%

Structure (SMILES): Oc1ccc(CN2CCN(c3ccc(Br)cc3)CC2)c2cccnc12 [Compound 27, 5-((4-(4-bromophenyl)piperazin-1-ium-1-yl)methyl)-8-hydroxyquinolin-1-ium chloride]
- EphB1 Inhibition Percent, Inhibition of Association ONLY (EphrinB2-EphB1): 24.2% and 33.8%
- EphB1 Inhibition Percent, Inhibition of Association-Dissociation (EphrinB2-EphB1): 57.1% and 43.8%
- EphB2 Inhibition Percent, Inhibition of Association ONLY (EphrinB2-EphB2 [1]): 16.8% and 29.2%
- EphB2 Inhibition Percent, Inhibition of Association-Dissociation (EphrinB2-EphB2 [1]): 60.9% and 43.7%
- IC50 (EphrinB2-EphB2 [2]; Absolute AUC/IC50, Table A): > 1600 nM
- IC50 (EphrinB2-EphB2 [2]; [3]): > 1600 nM
- IC50 (EphrinB2-EphB2 [2]; [4]): > 1600 nM
- IC50 (EphrinB2-EphB2 [2]; [5]): 420 nM
- EphB4 Inhibition Percent, Inhibition of Association ONLY (EphrinB2-EphB4): 11.4/11.4%
- EphB4 Inhibition Percent, Inhibition of Association-Dissociation (EphrinB2-EphB4): 19.5% and 12.6%

Structure (SMILES): Oc1ccc(CN2CCN(c3ccc(I)cc3)CC2)c2cccnc12 [Compound 32]
- EphB1 Inhibition Percent, Inhibition of Association ONLY (EphrinB2-EphB1): 24.5%
- EphB1 Inhibition Percent, Inhibition of Association-Dissociation (EphrinB2-EphB1): 40.5%
- EphB2 Inhibition Percent, Inhibition of Association ONLY (EphrinB2-EphB2 [1]): 63.9%
- EphB2 Inhibition Percent, Inhibition of Association-Dissociation (EphrinB2-EphB2 [1]): 78.2%
- IC50 (EphrinB2-EphB2 [2]; Absolute AUC/IC50, Table A): > 1600 nM
- IC50 (EphrinB2-EphB2 [2]; [3]): > 1600 nM
- IC50 (EphrinB2-EphB2 [2]; [4]): > 1600 nM
- IC50 (EphrinB2-EphB2 [2]; [5]): 790 nM
- IC50 (EphrinB2-EphB2 [2]; [6]): 1400 nM
- IC50 (EphrinB2-EphB2 [2]; [7]): 1000 nM
- EphB4 Inhibition Percent, Inhibition of Association ONLY (EphrinB2-EphB4): 33.8%
- EphB4 Inhibition Percent, Inhibition of Association-Dissociation (EphrinB2-EphB4): 42.5%
